What all share (format): in vivo, human
The test system of test [1] is arthritis-like pain and inflammation of the knuckles. The experiment in a line: Case report: arthritis-like pain and inflammation of the knuckles, sublingual Substance P. The settings on record: person; after three days of sublingual drop therapy, continued after two months. The protocol:
Their disease appeared to be initiated by chronic exposure to floor stripper which caused RUDS (Reactive Upper Airway Dysfunction). […] Each drop contained 8×10−^5 mg synthetic Substance P (Sigma) in phosphate buffered saline. According to this example, a person with arthritis-like pain and inflammation of the knuckles but who tested negative for rheumatoid factor. […] The subject was treated by sublingual administration of Substance P according to the method. of Example 1.

Test [2] deals with RUDS manifested as severe hoarseness or aphonia. Nature of the test: Case report: RUDS with severe hoarseness or aphonia, sublingual Substance P. Particulars: person, one drop four times daily or more if needed. As for the experimental part:
Their disease appeared to be initiated by chronic exposure to floor stripper which caused RUDS (Reactive Upper Airway Dysfunction). […] Each drop contained 8×10−^5 mg synthetic Substance P (Sigma) in phosphate buffered saline. According to this example, a person presented RUDS that manifested as severe hoarseness or even aphonia if exposed to volatile chemicals, and especially to fragrances. They had suffered for several years after being exposed to fragrances from several co-workers using multiple perfumes. Their airway problem was reduced only by complete avoidance of any exposure to volatile chemicals which dramatically changing their lifestyle. […] Their RUDS continues to be controlled by taking one drop of Substance P four times daily, or more frequently if needed.

For test [3], the system named is repetitive, almost tic-like, exaggerated cough. Nature of the test: Case report: repetitive tic-like exaggerated cough, sublingual Substance P. Particulars: child. The protocol:
Their disease appeared to be initiated by chronic exposure to floor stripper which caused RUDS (Reactive Upper Airway Dysfunction). […] Each drop contained 8×10−^5 mg synthetic Substance P (Sigma) in phosphate buffered saline. According to this example, a child presented with a repetitive, almost tic-like, exaggerated cough that was disruptive to their classmates and teacher. Several physicians were consulted without success and with no apparent cause found for the cough.

Test [4] relates to chronic sciatic pain. Nature of the test: Case report: chronic disabling sciatic pain, sublingual Substance P. The settings on record: person. As for the experimental part: Their disease appeared to be initiated by chronic exposure to floor stripper which caused RUDS (Reactive Upper Airway Dysfunction). […] Each drop contained 8×10−^5 mg synthetic Substance P (Sigma) in phosphate buffered saline. According to this example, a person presented with a diagnosis of chronic sciatic pain that was disabling and of several years duration. Analgesics helped reduce the pain. The subject was treated by sublingual administration of Substance P according to the method of Example 1.

Test [5] concerns upper airway distress, persistent cough, RUDS (Reactive Upper Airway Dysfunction). The experiment in a line: Case report: persistent cough from RUDS triggered by volatile chemicals, sublingual Substance P. Particulars: person with RUDS; sublingual drop 8×10−^5 mg, one drop per hour for three hours then four times daily. As for the experimental part: His disease appeared to be initiated by chronic exposure to floor stripper which caused RUDS (Reactive Upper Airway Dysfunction). […] Each drop contained 8×10−^5 mg synthetic Substance P (Sigma) in phosphate buffered saline.

For test [6], the system named is numbness, tingling and severe pain in feet and legs. The experiment in a line: Case report: numbness, tingling and severe pain in feet, legs and hands, sublingual Substance P. Particulars: person; sublingual administration as in Example 1. The protocol:
Their disease appeared to be initiated by chronic exposure to floor stripper which caused RUDS (Reactive Upper Airway Dysfunction). […] Each drop contained 8×10−^5 mg synthetic Substance P (Sigma) in phosphate buffered saline. According to this example, a person presented with a history of numbness, tingling and severe pain in feet and legs eight years earlier. During the year immediately preceding their first office visit, the discomfort had spread to their hands. […] No cause of their discomfort could be determined, and the only relief they obtained was from narcotic analgesics.

Test [7] concerns severe sciatic-like pain of the hip. The experiment in a line: Case report: severe sciatic-like hip pain in a diabetic subject, sublingual Substance P. Particulars: person with diabetes; sublingual administration as in Example 1. The protocol: Their disease appeared to be initiated by chronic exposure to floor stripper which caused RUDS (Reactive Upper Airway Dysfunction). […] Each drop contained 8×10−^5 mg synthetic Substance P (Sigma) in phosphate buffered saline. According to this example, a person presented with severe sciatic-like pain of the hip of long duration. The subject also presented with a diagnosis of diabetes. […] They continue well for over two years.

The source of these data is patent US6437093B1, “Methods of treatment comprising administration of Substance P” (Milkhaus Laboratory, Inc., priority 2000, dated 2002).

Ends that are not written are not given here.

For the substance “Substance P (RPKPQQFFGLM; not fully specified (C-terminus); UniProt P20366 58-68, looked up) [synthetic Substance P (Sigma) in phosphate buffered saline; a tachykinin naturally occurring in the body]”, the “effect on arthritis-like pain and inflammation” value in test [1] is reported as ““remarkable” improvement”. For the same substance, in test [2], the “effect on RUDS (hoarseness/aphonia)” value is “significant improvement”. Moreover, the “long-term control of cough disorder” value in test [3] (continued sublingual treatment) is on record as “continued to control this disorder after more than a year”. The effect on cough entry in test [3] (sublingual administration as in Example 1) is given as “stopped the cough within minutes”. In test [4] (daily doses over several months), the “long-term control of sciatic pain” value is given as “continued control of pain”. Further, in test [4] (first sublingual drop), the “effect on chronic sciatic pain after first drop” value was “instantly and dramatically “turned off” the pain”. Besides, the “effect on persistent cough” value in test [5] is reported as “stopped almost immediately”. Further, in test [6], the “need for narcotic analgesics” value is reported as “able to discontinue narcotics” and the pain relief result is listed as “almost immediate pain relief”. Also, the “effect on sciatic-like hip pain” value in test [7] was “reduced the pain dramatically”.
